In patent US8399381B2, “Condensed heterocyclic sulfonyl urea compound, a herbicide containing the same, and a method for weed control using the same” (Sumitomo Chemical Company, Limited, priority 2002, dated 2013):

Key:
[1] = system: sulfonylurea herbicide-resistant Lindernia dubia subsp. major Pennell; test: Paddy pot weeding test, flooded, two-leaf stage (Test Example 1); format: in vivo; conditions: 1 g/are, three weeks after treatment, resistant biotype, Kawanishi Town, Yamagata Pref.
Description: (§1) A 5 cm×5 cm Jiffy Pot™ was charged with paddy soil, then water was introduced into each pot, seeds of sulfonylurea herbicide-sensitive Scirpus juncoides var. ohwianus, sulfonylurea herbicide-sensitive Lindernia procumbens (Krock.) Philcox, sulfonylurea herbicide-sensitive Lindernia dubia subsp. major Pennell, sulfonylurea herbicide-resistant Scirpus juncoides var. ohwianus, sulfonylurea herbicide-resistant Lindernia procumbens (Krock.) Philcox and sulfonylurea herbicide-resistant Lindernia dubia subsp. major Pennell were sowed therein and cultivated for a prescribed period under flooding conditions. When the plants reached the two-leave stage, the prescribed number of Jiffy Pots where the plants had been grown were transferred to a 150-cm^2 rectangular plastic pot, and water was introduced to a height of 3 cm, and a chemical diluent containing a compound was applied into the pot in an amount of 1 g/are. The chemical diluent was prepared by dissolving 1.5 g compound in 2 L of N,N-dimethylformamide (DMF) containing, 2% (W/V) surfactant Tween™ 20 and then diluting it with water to adjust the total volume to 10 L.

[2] = system: sulfonylurea herbicide-resistant Lindernia procumbens (Krock.) Philcox; test: as above; format: in vivo; conditions: 1 g/are, three weeks after treatment, resistant biotype, Tajiri Town, Miyagi Pref.
Description: as §1

[3] = system: sulfonylurea herbicide-resistant Scirpus juncoides var. ohwianus; test: as above; format: in vivo; conditions: 1 g/are, three weeks after treatment, resistant biotype, Iwamisawa City, Hokkaido
Description: as §1

[4] = system: sulfonylurea herbicide-sensitive Lindernia dubia subsp. major Pennell; test: as above; format: in vivo; conditions: 1 g/are, three weeks after treatment, sensitive biotype, Makabe Town, Ibaraki Pref.
Description: as §1

[5] = system: sulfonylurea herbicide-sensitive Lindernia procumbens (Krock.) Philcox; test: as above; format: in vivo; conditions: 1 g/are, three weeks after treatment, sensitive biotype, Kyoto Pref.
Description: as §1

[6] = system: sulfonylurea herbicide-sensitive Scirpus juncoides var. ohwianus; test: as above; format: in vivo; conditions: 1 g/are, three weeks after treatment, sensitive biotype, Kyoto Pref.
Description: as §1

## COc1cc(OC)nc(S(=O)(=O)NC(=O)Nc2c(Cl)nc3ccc(SC)nn23)n1 [Compound No. 26]
[1]
  R Lindernia dubia subsp. major Pennell (effect index): 4 (high 61 to 80)
[2]
  R Lindernia procumbens (Krock.) Philcox (effect index): 3 (moderate 41 to 60)
[3]
  R Scirpus juncoides var. ohwianus (effect index): 5 (excellent 81 to 100)
[4]
  S Lindernia dubia subsp. major Pennell (effect index): 5 (excellent 81 to 100)
[5]
  S Lindernia procumbens (Krock.) Philcox (effect index): 5 (excellent 81 to 100)
[6]
  S Scirpus juncoides var. ohwianus (effect index): 5 (excellent 81 to 100)
other
  melting point: 163 to 165 °C
